The source of these data is ChEMBL document CHEMBL1667810, “New positive allosteric modulators of the metabotropic glutamate receptor 2 (mGluR2): identification and synthesis of N-propyl-8-chloro-6-substituted isoquinolones” (Bioorg Med Chem Lett, 2011).

pEC50: −log10 of the molar value. A value given as a limit tells only on which side of the number the result lay.

For orientation: pEC50 means −log10 of the EC50, conventionally taken in molar units. As a reminder, the Emax is the greatest response seen or fitted, relative to the assay's reference.

What all share (type): functional, cell-based
The target in test [1] is T1, Metabotropic glutamate receptor 2 (Homo sapiens, UniProt Q14416). In words: Agonist activity at human mGluR2 expressed in CHO cells at by [S35]GTPgammaS binding assay. In general terms: GTPγS resists hydrolysis and so accumulates on activated G proteins.
Target sequence in this assay (Q14416 whole entry): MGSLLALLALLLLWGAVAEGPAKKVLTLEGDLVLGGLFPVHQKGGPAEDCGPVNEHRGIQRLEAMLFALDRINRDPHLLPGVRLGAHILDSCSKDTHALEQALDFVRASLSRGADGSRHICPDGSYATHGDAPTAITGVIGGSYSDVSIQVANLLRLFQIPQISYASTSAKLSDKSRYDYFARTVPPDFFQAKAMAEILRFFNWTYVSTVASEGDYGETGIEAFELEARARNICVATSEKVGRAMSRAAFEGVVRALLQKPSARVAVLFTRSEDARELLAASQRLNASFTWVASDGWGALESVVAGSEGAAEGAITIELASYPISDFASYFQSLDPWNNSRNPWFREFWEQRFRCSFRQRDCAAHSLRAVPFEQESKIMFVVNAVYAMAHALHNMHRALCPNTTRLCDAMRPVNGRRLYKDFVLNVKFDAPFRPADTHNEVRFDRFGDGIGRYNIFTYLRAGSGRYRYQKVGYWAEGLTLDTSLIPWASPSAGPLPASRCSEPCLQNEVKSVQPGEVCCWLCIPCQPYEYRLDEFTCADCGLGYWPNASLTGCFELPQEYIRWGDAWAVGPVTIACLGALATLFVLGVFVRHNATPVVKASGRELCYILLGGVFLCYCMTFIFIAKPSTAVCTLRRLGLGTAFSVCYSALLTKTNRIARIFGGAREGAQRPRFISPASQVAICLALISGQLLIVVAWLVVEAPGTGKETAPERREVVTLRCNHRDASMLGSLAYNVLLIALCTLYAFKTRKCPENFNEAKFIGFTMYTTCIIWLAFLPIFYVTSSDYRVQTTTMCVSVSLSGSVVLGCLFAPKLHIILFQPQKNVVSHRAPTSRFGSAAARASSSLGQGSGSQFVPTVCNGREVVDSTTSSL
In test [2] the target is T1, Metabotropic glutamate receptor 2. In words: Agonist activity at human mGluR2 expressed in CHO cells at by [S35]GTPgammaS binding assay relative to glutamate.
Target sequence in this assay (Q14416 19-872 limits assumed): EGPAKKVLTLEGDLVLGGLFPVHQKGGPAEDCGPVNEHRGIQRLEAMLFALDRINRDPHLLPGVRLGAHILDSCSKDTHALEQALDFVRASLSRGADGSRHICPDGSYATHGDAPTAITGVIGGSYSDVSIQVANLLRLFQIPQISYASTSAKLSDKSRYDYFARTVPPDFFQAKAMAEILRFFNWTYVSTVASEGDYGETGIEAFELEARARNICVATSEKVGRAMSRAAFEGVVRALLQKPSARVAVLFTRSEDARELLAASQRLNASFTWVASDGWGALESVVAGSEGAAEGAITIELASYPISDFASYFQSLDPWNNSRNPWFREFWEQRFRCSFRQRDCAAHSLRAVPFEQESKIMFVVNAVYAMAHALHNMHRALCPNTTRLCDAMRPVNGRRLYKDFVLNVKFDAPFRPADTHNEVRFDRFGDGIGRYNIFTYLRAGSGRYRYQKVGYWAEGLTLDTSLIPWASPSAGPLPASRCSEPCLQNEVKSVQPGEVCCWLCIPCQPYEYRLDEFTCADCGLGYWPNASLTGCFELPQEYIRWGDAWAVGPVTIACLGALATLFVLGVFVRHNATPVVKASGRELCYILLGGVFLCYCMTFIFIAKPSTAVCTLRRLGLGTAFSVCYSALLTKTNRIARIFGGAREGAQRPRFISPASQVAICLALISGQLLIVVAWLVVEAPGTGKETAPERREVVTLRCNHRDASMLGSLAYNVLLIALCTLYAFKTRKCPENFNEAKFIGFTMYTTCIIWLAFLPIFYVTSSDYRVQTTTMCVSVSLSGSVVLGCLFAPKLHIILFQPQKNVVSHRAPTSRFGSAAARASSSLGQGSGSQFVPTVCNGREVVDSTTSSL
Test [3] shares this target. In words: Agonist activity at human mGluR2 expressed in HEK293 cells assessed as induction of calcium release by FLIPR assay.
Target sequence in this assay (Q14416 whole entry): as the sequence (Q14416 whole entry) above

`CCCn1ccc2cc(N3CCC(O)CC3)cc(Cl)c2c1=O` showed a pEC50 in test [1] of 5.30. The same molecule registered an Emax in test [2] of 106%.
On to `CCCn1ccc2cc(NCc3cccnc3)cc(Cl)c2c1=O`, for which, in test [1], the pEC50 was 5.50. In test [2], the Emax stood at 82%.
Molecule `CCCn1ccc2cc(-c3cccnc3)cc(C#N)c2c1=O` had a pEC50 in test [1] of less than 4.30.
In test [1], `CCCn1ccc2cc(-c3ccc(OCc4ccc(Cl)nc4)cc3)cc(Cl)c2c1=O` showed a pEC50 of 6.40. Further, in test [2], the Emax was 81%.
On the same counts, the results for `CCCn1ccc2cc(-c3ccc(Oc4ccncc4)cc3)cc(Cl)c2c1=O` are 6.80 and 90%.
Turning to `CCCn1ccc2cc(N3CCOCC3)cc(Cl)c2c1=O`, the pEC50 in test [3] is 5.60; in test [1], 5.30. Moreover, in test [2], the Emax was determined as 104%.
In turn, `CCCn1ccc2cc(-c3ccc(N4CCOCC4)nc3)cc(Cl)c2c1=O` showed a pEC50 in test [1] of 6.10. The same molecule displayed an Emax in test [2] of 84%.
Molecule `CCCn1ccc2cc(-c3ccncc3)cc(Cl)c2c1=O` had a pEC50 in test [1] of 5.90. The molecule further showed an Emax in test [2] of 73%.
In test [1], `CCCn1ccc2cc(-c3ccc(OCc4cccnc4)cc3)cc(Cl)c2c1=O` gave a pEC50 of 5.90. This molecule also registered a maximal effect (Emax) in test [2] of 64%.
In turn, `CCCn1ccc2cc(-c3cnc(OC)c(F)c3)cc(Cl)c2c1=O` showed a pEC50 in test [1] of 6.40. In test [2], the Emax was determined as 75%.
On the same counts, the results for `CCCn1ccc2cc(-c3cccnc3)ccc2c1=O` are 5.10 and 81%.
On the same counts, the results for `CCCn1ccc2cc(OCCc3cccnc3)cc(Cl)c2c1=O` are 6.10 and 47%.
On the same counts, the results for `CCCn1ccc2cc(-c3ccc(OCc4cccnc4)nc3)cc(Cl)c2c1=O` are 6.50 and 120%.
The molecule `CCCn1ccc2cc(-c3cncnc3)cc(Cl)c2c1=O` showed a pEC50 in test [1] of 5.40. For the same molecule, the Emax in test [2] was 28%.
As for `CCCn1ccc2cc(-c3cccnc3)cc(Cl)c2c1=O`, in test [1], the pEC50 was 6.20. In test [2], this molecule registered an Emax of 83%.
The matching figures for `CCCn1ccc2cc(OCCCc3cccnc3)cc(Cl)c2c1=O`: 6.20 and 75%.
`CCCn1ccc2cc(N3CCNCC3)cc(Cl)c2c1=O` showed a negative-log EC50 (pEC50) in test [1] of less than 5.00. In test [2], this molecule showed an Emax of 47%.
Take `CCCn1ccc2cc(OCc3cccnc3)cc(Cl)c2c1=O`: the pEC50 in test [1] is 5.60. Besides, the Emax in test [2] came to 126%.
On the same counts, the results for `CCCn1ccc2cc(-c3ccc(OC)cc3)cc(Cl)c2c1=O` are 6.50 and 136%.
In test [1], `CCCn1ccc2cc(-c3ccc(Oc4ccccc4)nc3)cc(Cl)c2c1=O` showed a pEC50 of 6.30. The Emax in test [2] worked out at 92%.
On the same counts, the results for `CCCn1ccc2cc(-c3ccc(OCCc4ccccc4)nc3)cc(Cl)c2c1=O` are 6.20 and 103%.
Regarding `CCCn1ccc2cc(N3CCOCC3)ccc2c1=O`, the pEC50 in test [1] is less than 5.00. The Emax in test [2] worked out at 66%.
Consider `CCCn1ccc2cc(-c3ccc(OCc4ccc(C(F)(F)F)nc4)cc3)cc(Cl)c2c1=O`, for which the pEC50 in test [1] was 6.60. Moreover, in test [2], the Emax stood at 170%.
On the same counts, the results for `CCCn1ccc2cc(-c3ccc(Oc4ccccc4)cc3)cc(Cl)c2c1=O` are 5.70 and 88%.
For `CCCn1ccc2cc(-c3ccc(N(C)C)nc3)cc(Cl)c2c1=O`, the pEC50 in test [1] was 5.30. Also, the Emax in test [2] came to 85%.
The matching figures for `CCCn1ccc2cc(-c3ccc(OC)nc3)cc(Cl)c2c1=O`: 6.10 and 121%.
The matching figures for `CCCn1ccc2cc(-c3cn[nH]c3)cc(Cl)c2c1=O`: 5.80 and 65%.
